Source: patent publication US8927721B2, “Naphthyridine derivative” (Shionogi & Co., Ltd., priority 2010, dated 2015)

Experiments:
CYP2C9 = biological target: T1, CYP2C9 (Homo sapiens, UniProt P11712); assay: CYP inhibition test (CYP2C9); type: in vitro ADME; conditions: pooled human hepatic microsome, tolbutamide methyl-hydroxylation
T1 construct: enzyme, pooled human hepatic microsome 0.2 mg protein/mL; from tissue; host or cells: pooled human hepatic microsome
From the text: (§1) Using commercially available pooled human hepatic microsome, and employing, as markers, 7-ethoxyresorufin O-deethylation (CYP1A2), tolbutamide methyl-hydroxylation (CYP2C9), mephenyloin 4′-hydroxylation (CYP2C19), dextromethorphan O-demethylation (CYP2D6), and terfenedine hydroxylation (CYP3A4) as typical substrate metabolism reactions of human main five CYP enzyme forms (CYP1A2, 2C9, 2C19, 2D6, 3A4), an inhibitory degree of each metabolite production amount by a compound of the present invention was assessed. […] After the centrifugation at 3000 rpm for 15 minutes, resorufin (CYP1A2 metabolite) in the supernatant was quantified by a multi-label counter and hydroxytolbutamide (CYP2C9 metabolite), 4′-hydroxymephenyloin (CYP2C19 metabolite), dextrorphan (CYP2D6 metabolite), and terfenadine alcohol metabolite (CYP3A4 metabolite) were quantified by LC/MS/MS. Addition of only DMSO being a solvent dissolving a compound to a reaction system was adopted as a control (100%), remaining activity (%) was calculated and IC50 was calculated by reverse presumption by a logistic model using a concentration and an inhibition rate.

CYP2D6 = biological target: T2, CYP2D6 (Homo sapiens, UniProt P10635); assay: CYP inhibition test (CYP2D6); type: in vitro ADME; conditions: pooled human hepatic microsome, dextromethorphan O-demethylation
T2 construct: enzyme, pooled human hepatic microsome 0.2 mg protein/mL; from tissue; host or cells: pooled human hepatic microsome
T2 sequence (P10635 whole entry): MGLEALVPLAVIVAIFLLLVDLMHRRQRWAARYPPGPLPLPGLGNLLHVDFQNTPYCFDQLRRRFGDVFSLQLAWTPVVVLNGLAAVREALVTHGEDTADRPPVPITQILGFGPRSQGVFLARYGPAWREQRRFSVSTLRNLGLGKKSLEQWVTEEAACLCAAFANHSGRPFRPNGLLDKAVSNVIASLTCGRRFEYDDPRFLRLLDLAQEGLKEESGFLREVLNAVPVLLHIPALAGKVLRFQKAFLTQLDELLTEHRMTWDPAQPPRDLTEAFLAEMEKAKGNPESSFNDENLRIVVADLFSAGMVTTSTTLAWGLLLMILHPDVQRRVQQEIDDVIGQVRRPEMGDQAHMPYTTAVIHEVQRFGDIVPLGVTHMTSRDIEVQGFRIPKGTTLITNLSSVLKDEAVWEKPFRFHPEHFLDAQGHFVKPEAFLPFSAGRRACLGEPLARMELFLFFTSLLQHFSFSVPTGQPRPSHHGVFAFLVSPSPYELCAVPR
From the text: as §1

CYP3A4 = CYP3A4 (Homo sapiens, UniProt P08684); assay: CYP inhibition test (CYP3A4); type: in vitro ADME; parameters: enzyme, pooled human hepatic microsome 0.2 mg protein/mL; from tissue; host or cells: pooled human hepatic microsome; conditions: pooled human hepatic microsome, terfenedine hydroxylation
Sequence of CYP3A4 (P08684 whole entry): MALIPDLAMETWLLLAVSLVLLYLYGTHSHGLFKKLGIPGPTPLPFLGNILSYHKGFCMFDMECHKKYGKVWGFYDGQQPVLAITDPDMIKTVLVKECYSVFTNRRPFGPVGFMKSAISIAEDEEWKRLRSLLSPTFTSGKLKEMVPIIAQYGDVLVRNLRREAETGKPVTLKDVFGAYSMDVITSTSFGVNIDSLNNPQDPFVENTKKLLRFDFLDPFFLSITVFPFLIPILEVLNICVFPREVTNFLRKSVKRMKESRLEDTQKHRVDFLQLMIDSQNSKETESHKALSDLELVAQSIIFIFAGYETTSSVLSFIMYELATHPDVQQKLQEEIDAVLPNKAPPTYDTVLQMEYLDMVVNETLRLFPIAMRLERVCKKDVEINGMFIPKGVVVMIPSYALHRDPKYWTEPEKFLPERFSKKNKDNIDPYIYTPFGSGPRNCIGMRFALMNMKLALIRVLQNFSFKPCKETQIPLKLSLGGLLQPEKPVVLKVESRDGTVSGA
From the text: as §1

CYP2C19 = biological target: T3, CYP2C19 (Homo sapiens, UniProt P33261); assay: CYP inhibition test (CYP2C19); type: in vitro ADME; conditions: pooled human hepatic microsome, mephenyloin 4′-hydroxylation
T3 construct: enzyme, pooled human hepatic microsome 0.2 mg protein/mL; from tissue; host or cells: pooled human hepatic microsome
T3 sequence (P33261 whole entry): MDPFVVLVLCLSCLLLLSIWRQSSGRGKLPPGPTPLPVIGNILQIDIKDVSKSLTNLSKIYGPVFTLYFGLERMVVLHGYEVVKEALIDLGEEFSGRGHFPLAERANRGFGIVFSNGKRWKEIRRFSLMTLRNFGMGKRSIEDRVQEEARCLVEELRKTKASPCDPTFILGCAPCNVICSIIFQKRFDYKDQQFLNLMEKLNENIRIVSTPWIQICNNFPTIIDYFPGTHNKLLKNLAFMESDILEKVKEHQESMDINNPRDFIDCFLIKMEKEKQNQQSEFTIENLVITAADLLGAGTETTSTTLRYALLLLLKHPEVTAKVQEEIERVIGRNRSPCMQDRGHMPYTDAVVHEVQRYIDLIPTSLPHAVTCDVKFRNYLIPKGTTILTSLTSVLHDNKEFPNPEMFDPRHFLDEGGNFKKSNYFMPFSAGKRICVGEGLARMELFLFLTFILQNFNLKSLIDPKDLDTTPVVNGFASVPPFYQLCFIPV
From the text: as §1

CYP1A2 = biological target: T4, CYP1A2 (Homo sapiens, UniProt P05177); assay: CYP inhibition test (CYP1A2); type: in vitro ADME; conditions: pooled human hepatic microsome, 7-ethoxyresorufin O-deethylation
T4 construct: enzyme, pooled human hepatic microsome 0.2 mg protein/mL; from tissue; host or cells: pooled human hepatic microsome
T4 sequence (P05177 1-516): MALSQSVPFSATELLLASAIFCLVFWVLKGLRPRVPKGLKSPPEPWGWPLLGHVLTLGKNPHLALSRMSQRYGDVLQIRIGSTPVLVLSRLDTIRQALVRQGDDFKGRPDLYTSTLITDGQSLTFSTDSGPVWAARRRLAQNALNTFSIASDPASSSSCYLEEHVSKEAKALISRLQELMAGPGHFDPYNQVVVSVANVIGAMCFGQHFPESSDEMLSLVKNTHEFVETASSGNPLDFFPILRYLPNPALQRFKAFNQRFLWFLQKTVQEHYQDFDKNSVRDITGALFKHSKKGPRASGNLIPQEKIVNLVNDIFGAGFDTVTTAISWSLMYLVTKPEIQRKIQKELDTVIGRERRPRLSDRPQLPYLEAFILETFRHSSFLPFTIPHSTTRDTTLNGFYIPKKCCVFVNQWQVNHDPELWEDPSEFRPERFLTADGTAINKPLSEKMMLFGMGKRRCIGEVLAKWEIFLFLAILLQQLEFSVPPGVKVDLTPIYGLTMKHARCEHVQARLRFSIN
From the text: as §1

Recombinant human BACE1 = biological target: T5, Recombinant human BACE1 (Homo sapiens, UniProt P56817); assay: Assay of BACE1 inhibitory activity; type: biochemical; conditions: Recombinant human BACE1, 30° C., 3 hours, pH 5.0; read-out: IC50 (50% inhibitory concentration against the enzymatic activity)
T5 construct: purchased R&D Systems
T5 sequence (P56817 46-501): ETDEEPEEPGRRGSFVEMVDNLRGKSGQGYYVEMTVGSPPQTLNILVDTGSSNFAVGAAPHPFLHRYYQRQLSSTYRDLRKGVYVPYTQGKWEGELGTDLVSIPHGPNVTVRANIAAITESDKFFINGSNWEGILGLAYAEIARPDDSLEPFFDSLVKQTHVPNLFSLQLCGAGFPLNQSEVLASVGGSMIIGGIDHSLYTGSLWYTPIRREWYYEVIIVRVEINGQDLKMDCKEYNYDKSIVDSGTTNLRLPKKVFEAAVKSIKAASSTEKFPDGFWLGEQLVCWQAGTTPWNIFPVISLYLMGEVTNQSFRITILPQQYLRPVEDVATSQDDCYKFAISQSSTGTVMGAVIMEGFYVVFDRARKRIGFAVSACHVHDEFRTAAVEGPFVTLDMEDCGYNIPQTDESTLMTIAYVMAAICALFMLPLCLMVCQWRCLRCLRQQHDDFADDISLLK
Method: 48.5 μL of substrate peptide solution (Biotin-XSEVNLDAEFRHDSGC-Eu: X=ε-amino-n-capronic acid, Eu=Europium cryptate) was added to each well of 96-hole half-area plate (a black plate: Costar), and after addition of 0.5 μl of the compound of the present invention (N,N′-dimethylformamide solution) and 1 μl of Recombinant human BACE1(R&D Systems), the reaction mixture was incubated at 30° C. for 3 hours. The substrate peptide was synthesized by reacting Cryptate TBPCOOH mono SMP (CIS bio international) with Biotin-XSEVNLDAEFRHDSGC (Peptide Institute, Inc.). The final concentrations of the substrate peptide and Recombinant human BACE1 were adjusted to 18 nmol/L and 7.4 nmol/L, respectively, and the reaction was performed in sodium acetate buffer (50 mmol/L sodium acetate, pH 5.0, 0.008% Triton X-100). After the incubation for reaction, 50 μl of 8.0 μg/ml Streptavidin-XL665 (CIS bio international) dissolved in phosphate buffer (150 mmol/L K2HPO4—KH2PO4, pH 7.0, 0.008% Triton X-100, 0.8 mol/L KF) was added to each well and left stand at 30° C. for 1 hour. After then, fluorescence intensity was measured (excitation wavelength: 320 nm, measuring wavelength: 620 nm and 665 nm) using Wallac 1420 multilabel counter (Perkin Elmer life sciences). Enzymatic activity was determined from counting ratio of each wavelength (10,000×Count 665/Count 620) and 50% inhibitory concentration against the enzymatic activity (IC50) was calculated.

[1] = Metabolism stability test; type: in vitro ADME; conditions: human liver microsomes 0.5 mg protein/mL, 37° C., 30 minutes, NADPH
Method: Using a commercially available pooled human hepatic microsomes, a compound of the present invention is reacted for a constant time, a remaining rate is calculated by comparing a reacted sample and an unreacted sample, thereby, a degree of metabolism in liver of the compound of the present invention is assessed.
A reaction is performed (oxidative reaction) at 37° C. for 0 minute or 30 minutes in the presence of 1 mmol/L NADPH in 0.2 mL of a buffer (50 mmol/L Tris-HCl pH 7.4, 150 mmol/L potassium chloride, 10 mmol/L magnesium chloride) containing 0.5 mg protein/mL of human liver microsomes. After the reaction, 50 μL of the reaction solution is added to 100 μL of a methanol/acetonitrile=1/1 (v/v), mixed and centrifuged at 3000 rpm for 15 minutes. The compound of the present invention in the supernatant is quantified by LC/MS/MS, and a remaining amount of the compound of the present invention after the reaction is calculated, letting a compound amount at 0 minute reaction time to be 100%.

T1 sequence (P11712 whole entry): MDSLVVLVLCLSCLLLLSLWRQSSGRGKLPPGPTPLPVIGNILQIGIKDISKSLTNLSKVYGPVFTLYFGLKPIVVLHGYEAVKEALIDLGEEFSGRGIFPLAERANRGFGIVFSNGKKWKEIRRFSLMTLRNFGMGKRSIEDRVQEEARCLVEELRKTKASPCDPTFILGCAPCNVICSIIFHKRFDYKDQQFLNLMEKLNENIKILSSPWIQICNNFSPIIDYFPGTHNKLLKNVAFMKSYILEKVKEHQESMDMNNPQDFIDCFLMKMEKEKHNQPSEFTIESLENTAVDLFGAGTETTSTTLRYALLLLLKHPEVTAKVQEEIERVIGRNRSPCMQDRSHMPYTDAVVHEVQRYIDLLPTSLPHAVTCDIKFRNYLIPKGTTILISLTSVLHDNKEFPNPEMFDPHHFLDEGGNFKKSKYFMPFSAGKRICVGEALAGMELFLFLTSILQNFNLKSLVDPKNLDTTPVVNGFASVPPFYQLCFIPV

| IC50 (CYP2C9) [µM] | IC50 (CYP2D6) [µM] | IC50 (CYP3A4) [µM] | IC50 (CYP2C19) [µM] | IC50 (CYP1A2) [µM] | IC50 (Recombinant human BACE1) [µM] | remaining amount after the reaction [1] [%] | SMILES |
| --- | --- | --- | --- | --- | --- | --- | --- |
| > 20 | > 20 | > 20 | > 20 | > 20 | ≤ 1 | – | CC1(c2cc(NC(=O)c3ncc(F)cc3F)ccc2F)Cc2ccncc2C(N)=N1 (centres unmarked) [Compound I-2] |
| – | – | – | – | – | ≤ 1 | 88 | CC1(c2cc(NC(=O)c3ccc(C#N)cn3)ccc2F)Cc2cnccc2C(N)=N1 (centres unmarked) [Compound I-5] |
